Molecular target: T1, human UMP/CMP kinase (Homo sapiens, UniProt P30085)
T1 sequence (P30085 1-196): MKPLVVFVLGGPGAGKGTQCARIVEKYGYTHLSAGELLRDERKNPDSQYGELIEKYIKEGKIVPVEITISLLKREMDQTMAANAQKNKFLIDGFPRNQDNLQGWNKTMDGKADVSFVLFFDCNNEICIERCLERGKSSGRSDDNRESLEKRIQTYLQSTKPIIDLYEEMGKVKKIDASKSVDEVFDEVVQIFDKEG
Experiment: preparative enzymatic phosphorylation, product NMR
Format: biochemical
Conditions: ATP, Mg2+, pH 8, 37 °C

Nc1ccn([C@@H]2O[C@H](COP(=O)(O)O)[C@@H](O)C2(F)F)c(=O)n1 [F2CMP, 2′-Deoxy-2′,2′-difluorocytidine-5′-monophosphate]
preparative enzymatic phosphorylation, product NMR: F2CDP was generated enzymatically from F2CMP and ATP with human UMP/CMP kinase
